Here are results for 19 molecules from patent US10464922B2, “Metalloenzyme inhibitor compounds” (NQP 1598 LTD., priority 2015, dated 2019).

By MIC is commonly meant the lowest concentration found to suppress growth.

One assay concerns C. albicans (ATCC 90028). Description: Minimum inhibitory concentration, in vitro broth microdilution assay (CLSI M27-A2). The assay is classed as cell-based, Candida albicans. Conditions: ATCC 90028, about 50% growth reduction, 2 days at 36° C., range tested 8-0.0078 μg/mL, values given as ranges; for MIC: Candida albicans, ATCC90028, 48 h, read-out: Candida albicans MIC. How it is done:
The antifungal potency of the test compounds was measured using the in vitro broth microdilution assay under assay conditions described by the Clinical and Laboratory Standards Institute (CLSI M27-A2). The test compounds were dissolved in 100% DMSO, suspended completely by sonication or vortexing, diluted by 2-fold serial titrations in the same vehicle, for a total of 11 test concentrations. A 4 μL aliquot of each dilution was added to 196 μL of RPMI-1640+MOPS medium seeded with the C. albicans (ATCC 90028) suspension in wells of a 96 well plate (fungal cell count: 1×10^3 to 1×10^4 colony forming units per mL). The final volume was 200 μL in each well and the final DMSO concentration was 2 percent. The inoculated plates were incubated for 2 days at 36° C. Following incubation, the test plates were visually examined and wells were scored for growth to define the minimum inhibitory concentration. […] Each test substance was evaluated in duplicate. Vehicle-control and an active reference agent (e.g., posaconazole) were used as blank and positive controls, respectively.
In general terms: Dilution methods test growth across graded concentrations, often in twofold steps.

The subject of another assay is A. fumigatus. Description: A. fumigatus MIC at 100% growth inhibition (CLSI M38-A2). It counts as cell-based, Aspergillus fumigatus. Conditions: 100% growth inhibition, range tested 8-0.0078 μg/mL, values given as ranges; for MIC: Aspergillus fumigatus, read-out: Aspergillus fumigatus MIC. How it is done:
A. fumigatus MICs were determined at 100% growth inhibition following CLSI guidelines at a concentration range of 8-0.0078 μg/mL (CLSI M38-A2).

Converted amounts (≈) assume the structure as drawn.

On to `N#Cc1ccc(N2CCN(c3ccc(-c4ccc(C(F)(F)[C@](O)(Cn5cnnn5)c5ccc(F)cc5F)nc4)cc3)CC2)cc1` [Example 1, (R)-4-(4-(4-(6-(2-(2,4-difluorophenyl)-1,1-difluoro-2-hydroxy-3-(1H-tetrazol-1-yl)propyl)pyridin-3-yl)phenyl)piperazin-1-yl) benzonitrile], for which the MIC in the assay with C. albicans (ATCC 90028) was 0.0078 to 0.01 µg/mL (≈ 0.0127 to 0.0163 µM); with A. fumigatus it was 0.25 to 1 µg/mL (≈ 0.407 to 1.63 µM).
On to `O[C@@](Cn1cnnn1)(c1ccc(F)cc1F)C(F)(F)c1ccc(-c2ccc(N3CCN(c4ccc(F)cc4)CC3)cc2)cn1` [Example 2, (R)-2-(2,4-difluorophenyl)-1,1-difluoro-1-(5-(4-(4-(4-fluorophenyl)piperazin-1-yl)phenyl)pyridin-2-yl)-3-(1H-tetrazol-1-yl) propan-2-ol], for which the MIC with C. albicans (ATCC 90028) is 0.0078 to 0.01 µg/mL (≈ 0.0128 to 0.0165 µM); with A. fumigatus, 0.25 to 1 µg/mL (≈ 0.411 to 1.65 µM).
In the case of `OC(c1ccc(N2CCN(c3ccc(-c4ccc(C(F)(F)[C@](O)(Cn5cnnn5)c5ccc(F)cc5F)nc4)cc3)CC2)cc1)C(F)(F)F` (stereo partly drawn) [Example 3, (2R)-2-(2,4-difluorophenyl)-1,1-difluoro-3-(1H-tetrazol-1-yl)-1-(5-(4-(4-(4-(2,2,2-trifluoro-1-hydroxyethyl)phenyl)piperazin-1-yl)phenyl)pyridin-2-yl) propan-2-ol], the minimum inhibitory concentration (MIC) in the assay with C. albicans (ATCC 90028) lay in the range of 0.0078 to 0.01 µg/mL (≈ 0.0113 to 0.0145 µM); with A. fumigatus, 0.25 to 1 µg/mL (≈ 0.364 to 1.45 µM).
The corresponding values for `NC(c1ccc(N2CCN(c3ccc(-c4ccc(C(F)(F)[C@](O)(Cn5cnnn5)c5ccc(F)cc5F)nc4)cc3)CC2)cc1)C(F)(F)F` (stereo partly drawn) [Example 4, (2R)-1-(5-(4-(4-(4-(1-amino-2,2,2-trifluoroethyl)phenyl)piperazin-1-yl)phenyl)pyridin-2-yl)-2-(2,4-difluorophenyl)-1,1-difluoro-3-(1H-tetrazol-1-yl) propan-2-ol] are 0.01 to 0.1 µg/mL (≈ 0.0146 to 0.146 µM) and 0.25 to 1 µg/mL (≈ 0.364 to 1.46 µM).
Turning to `OC(c1ccc(N2CCN(c3ccc(-c4ccc(C(F)(F)[C@](O)(Cn5cnnn5)c5ccc(F)cc5F)nc4)cc3)CC2)cc1F)C(F)(F)F` (stereo partly drawn) [Example 5, (2R)-2-(2,4-difluorophenyl)-1,1-difluoro-1-(5-(4-(4-(3-fluoro-4-(2,2,2-trifluoro-1-hydroxyethyl)phenyl)piperazin-1-yl)phenyl)pyridin-2-yl)-3-(1H-tetrazol-1-yl) propan-2-ol], the MIC in the assay with C. albicans (ATCC 90028) was 0.0078 to 0.01 µg/mL (≈ 0.0111 to 0.0142 µM); in the assay on A. fumigatus, 0.25 to 1 µg/mL (≈ 0.354 to 1.42 µM).
`OC(c1ccc(N2CCN(c3ccc(-c4ccc(C(F)(F)[C@](O)(Cn5cnnn5)c5ccc(F)cc5F)nc4)cc3)CC2)cn1)C(F)(F)F` (stereo partly drawn) [Example 6, (2R)-2-(2,4-difluorophenyl)-1,1-difluoro-3-(1H-tetrazol-1-yl)-1-(5-(4-(4-(6-(2,2,2-trifluoro-1-hydroxyethyl)pyridin-3-yl)piperazin-1-yl)phenyl)pyridin-2-yl) propan-2-ol]: in the assay on C. albicans (ATCC 90028), the “Candida albicans MIC” value is no more than 7.8 to 10 ng/mL. The “Aspergillus fumigatus MIC” value in the assay on A. fumigatus lay in the range of 0.25 to 1.0 µg/mL.
Turning to `N#Cc1ccc(N2CCN(c3ccc(-c4ccc(C(F)(F)[C@](O)(Cn5cnnn5)c5ccc(F)cc5F)nc4)cc3)CC2)cn1` [Example 7, (R)-5-(4-(4-(6-(2-(2,4-difluorophenyl)-1,1-difluoro-2-hydroxy-3-(1H-tetrazol-1-yl)propyl)pyridin-3-yl)phenyl)piperazin-1-yl) picolinonitrile], the figures for the MIC in the assay with C. albicans (ATCC 90028) and with A. fumigatus were 0.0078 to 0.01 µg/mL (≈ 0.0127 to 0.0162 µM) and 0.25 to 1 µg/mL (≈ 0.406 to 1.62 µM), respectively.
The matching figures for `N#Cc1ccc(N2CCN(c3ccc(-c4ccc(C(F)(F)[C@](O)(Cn5cnnn5)c5ccc(F)cc5F)nc4)cc3)CC2)cc1F` [Example 8, (R)-4-(4-(4-(6-(2-(2,4-difluorophenyl)-1,1-difluoro-2-hydroxy-3-(1H-tetrazol-1-yl)propyl)pyridin-3-yl)phenyl)piperazin-1-yl)-2-fluorobenzonitrile]: 0.0078 to 0.01 µg/mL (≈ 0.0123 to 0.0158 µM) and 0.25 to 1 µg/mL (≈ 0.395 to 1.58 µM).
The corresponding values for `N#Cc1ccc(N2CCN(c3ccc(-c4ccc(C(F)(F)[C@](O)(Cn5cnnn5)c5ccc(F)cc5F)nc4)cc3F)CC2)c(F)c1` [Example 9, (R)-4-(4-(4-(6-(2-(2,4-difluorophenyl)-1,1-difluoro-2-hydroxy-3-(1H-tetrazol-1-yl)propyl)pyridin-3-yl)-2-fluorophenyl)piperazin-1-yl)-3-fluorobenzonitrile] are 0.0078 to 0.01 µg/mL (≈ 0.012 to 0.0154 µM) and greater than 8 µg/mL.
In the case of `N#Cc1ccc(N2CCN(c3ccc(-c4ccc(C(F)(F)[C@](O)(Cn5cnnn5)c5ccc(F)cc5F)nc4)cc3F)CC2)cc1` [Example 10, (R)-4-(4-(4-(6-(2-(2,4-difluorophenyl)-1,1-difluoro-2-hydroxy-3-(1H-tetrazol-1-yl)propyl)pyridin-3-yl)-2-fluorophenyl)piperazin-1-yl) benzonitrile], the figures for the MIC in the assay on C. albicans (ATCC 90028) and in the assay on A. fumigatus were 0.0078 to 0.01 µg/mL (≈ 0.0123 to 0.0158 µM) and greater than 8 µg/mL, respectively.
In the case of `N#Cc1ccc(N2CCN(c3ccc(-c4ccc(C(F)(F)[C@](O)(Cn5cnnn5)c5ccc(F)cc5F)nc4)cc3)CC2)c(F)c1` [Example 11, (R)-4-(4-(4-(6-(2-(2,4-difluorophenyl)-1,1-difluoro-2-hydroxy-3-(1H-tetrazol-1-yl)propyl)pyridin-3-yl)phenyl)piperazin-1-yl)-3-fluorobenzonitrile], the values for the MIC with C. albicans (ATCC 90028) and with A. fumigatus were 0.0078 to 0.01 µg/mL (≈ 0.0123 to 0.0158 µM) and 0.25 to 1 µg/mL (≈ 0.395 to 1.58 µM), respectively.
For the molecule `OC(CC(F)(F)F)c1ccc(N2CCN(c3ccc(-c4ccc(C(F)(F)[C@](O)(Cn5cnnn5)c5ccc(F)cc5F)nc4)cc3)CC2)cn1` (stereo partly drawn) [Example 13, 1-(5-(4-(4-(6-((R)-2-(2,4-difluorophenyl)-1,1-difluoro-2-hydroxy-3-(1H-tetrazol-1-yl)propyl)pyridin-3-yl)phenyl)piperazin-1-yl)pyridin-2-yl)-3,3,3-trifluoropropan-1-ol], the MIC with C. albicans (ATCC 90028) is 0.0078 to 0.01 µg/mL (≈ 0.0111 to 0.0142 µM). The “Aspergillus fumigatus MIC” value with A. fumigatus lay in the range of 0.25 to 1.0 µg/mL.
For the molecule `Nc1ccc(N2CCN(c3ccc(-c4ccc(C(F)(F)[C@](O)(Cn5cnnn5)c5ccc(F)cc5F)nc4)cc3)CC2)cc1` [Example 14, (R)-1-(5-(4-(4-(4-aminophenyl)piperazin-1-yl)phenyl)pyridin-2-yl)-2-(2,4-difluorophenyl)-1,1-difluoro-3-(1H-tetrazol-1-yl) propan-2-ol], the values for the MIC in the assay on C. albicans (ATCC 90028) and in the assay with A. fumigatus were 0.01 to 0.1 µg/mL (≈ 0.0165 to 0.165 µM) and greater than 8 µg/mL, respectively.
With `OC(c1ccc(N2CCN(c3ccc(-c4ccc(C(F)(F)[C@](O)(Cn5cnnc5)c5ccc(F)cc5F)nc4)cc3)CC2)cc1)C(F)(F)F` (stereo partly drawn) [Example 16, (2R)-2-(2,4-difluorophenyl)-1,1-difluoro-3-(4H-1,2,4-triazol-4-yl)-1-(5-(4-(4-(4-(2,2,2-trifluoro-1-hydroxyethyl)phenyl)piperazin-1-yl)phenyl)pyridin-2-yl) propan-2-ol], the results for the MIC in the assay on C. albicans (ATCC 90028) and with A. fumigatus were 0.0078 to 0.01 µg/mL (≈ 0.0114 to 0.0146 µM) and 0.25 to 1 µg/mL (≈ 0.364 to 1.46 µM), respectively.
The matching figures for `N#Cc1ccc(CN2CCN(c3ccc(-c4ccc(C(F)(F)[C@](O)(Cn5cnnn5)c5ccc(F)cc5F)nc4)cc3)CC2)cc1` [Example 17, (R)-4-((4-(4-(6-(2-(2,4-difluorophenyl)-1,1-difluoro-2-hydroxy-3-(1H-tetrazol-1-yl)propyl)pyridin-3-yl)phenyl)piperazin-1-yl)methyl) benzonitrile]: 0.0078 to 0.01 µg/mL (≈ 0.0124 to 0.0159 µM) and 1 to 4 µg/mL (≈ 1.59 to 6.36 µM).
With `N#Cc1ccc(N2CCN(Cc3ccc(-c4ccc(C(F)(F)[C@](O)(Cn5cnnn5)c5ccc(F)cc5F)nc4)cc3)CC2)cc1` [Example 18, (R)-4-(4-(4-(6-(2-(2,4-difluorophenyl)-1,1-difluoro-2-hydroxy-3-(1H-tetrazol-1-yl)propyl)pyridin-3-yl)benzyl)piperazin-1-yl) benzonitrile], the MIC is 0.0078 to 0.01 µg/mL (≈ 0.0124 to 0.0159 µM) in the assay on C. albicans (ATCC 90028) and greater than 8 µg/mL in the assay with A. fumigatus.
As to `N#Cc1ccc(N2CCN(C(=O)c3ccc(-c4ccc(C(F)(F)[C@](O)(Cn5cnnn5)c5ccc(F)cc5F)nc4)cc3)CC2)cc1` [Example 19, (R)-4-(4-(4-(6-(2-(2,4-difluorophenyl)-1,1-difluoro-2-hydroxy-3-(1H-tetrazol-1-yl)propyl)pyridin-3-yl)benzoyl)piperazin-1-yl) benzonitrile], the MIC in the assay on C. albicans (ATCC 90028) was 0.0078 to 0.01 µg/mL (≈ 0.0121 to 0.0156 µM); in the assay with A. fumigatus it was greater than 8 µg/mL.
The corresponding values for `CC[C@H](NC(=O)Nc1ccc(N2CCN(c3ccc(-c4ccc(C(F)(F)[C@](O)(Cn5cnnn5)c5ccc(F)cc5F)nc4)cc3)CC2)cc1)[C@H](C)O` [Example 21, 1-(4-(4-(4-(6-((R)-2-(2,4-difluorophenyl)-1,1-difluoro-2-hydroxy-3-(1H-tetrazol-1-yl)propyl)pyridin-3-yl)phenyl)piperazin-1-yl)phenyl)-3-((2S,3S)-2-hydroxypentan-3-yl) urea] are 0.01 to 0.1 µg/mL (≈ 0.0136 to 0.136 µM) and 0.25 to 1 µg/mL (≈ 0.341 to 1.36 µM).
For the molecule `N#Cc1ccc(N2CCC(c3ccc(-c4ccc(C(F)(F)[C@](O)(Cn5cnnn5)c5ccc(F)cc5F)nc4)cc3)CC2)cc1` [Example 22, (R)-4-(4-(4-(6-(2-(2,4-difluorophenyl)-1,1-difluoro-2-hydroxy-3-(1H-tetrazol-1-yl)propyl)pyridin-3-yl)phenyl)piperidin-1-yl) benzonitrile], the MIC with C. albicans (ATCC 90028) was 0.0078 to 0.01 µg/mL (≈ 0.0127 to 0.0163 µM); in the assay with A. fumigatus it was 0.25 to 1 µg/mL (≈ 0.407 to 1.63 µM).
